Columns and labels:
SD rats = assay: carrageenan-induced rat paw swelling test; format: in vivo; settings: 4 mg/Kg positive control
Procedure: Eighteen healthy adult male mice were randomly divided into 3 groups. FAPM (100 mg/kg) was administered intraperitoneally once a day for 3 consecutive days. The control group was injected with the same amount of solvent, and the positive drug dexamethasone (4 mg/kg) was administered intragastrically once a day for 3 consecutive days. Thirty minutes after the last administration, 0.1 mL of 1% carrageenan was injected subcutaneously into the right hind paw of each rat, and the plantar thickness was measured before injection and 1, 2 and 3 hours after injection. Three hours later, the rats were sacrificed by dislocation. The feet were cut off from the knee joints and weighed on a precision balance. The swelling degree of the paw (right foot weight-left foot weight) was calculated.

Kunming female mice [1] = assay: oxytocin-induced dysmenorrhea model in mice (diethylstilbestrol sensitization); format: in vivo, mouse; settings: Table 9, positive control 50 mg/Kg intraperitoneal
Procedure: (§1) A mouse dysmenorrhea model was established with reference to Yang L., Cao Z., Yu B. & Chai C. An in vivo mouse model of primary dysmenorrhea. Exp Anim. 2015, August 64, 295-303. Adult healthy Kunming female mice were randomly grouped, 10 mice in each group. Experimental mice were intragastrically given diethylstilbestrol 0.2 mg daily for 12 days. Different kinds and dosages of the inhibitors of the cytochrome bc1 complex were given intraperitoneally or intragastrically 30 min after the last administration. Indometacin (50 mg/kg) was injected intraperitoneally as positive control, PGF2α (1.3 mg/kg) or oxytocin (20 U/kg) was injected intraperitoneally 1 h later, and the writhe starting time (reaction latency) and the number of writhing times within 30 min were observed and recorded.

Kunming female mice [2] = assay: PGF2α-induced dysmenorrhea model in mice (diethylstilbestrol sensitization); format: in vivo, mouse; settings: for Number of writhing times: within 30 min
Procedure: as §1

Kunming male mice = assay: acetic acid writhing test on mice; format: in vivo, mouse; settings: for Number of writhing times: within 30 min
mice = assay: xylene-induced mouse ear swelling test; format: in vivo; settings: 10 mg/Kg
Procedure: Fifty healthy adult male mice were randomly divided into 5 groups. […] […] One hour after administration, 20 μL of xylene was evenly applied to both sides of the right ear of mouse, and xylene was not applied to the left ear as self control. One hour later, the two ears were cut off, and two ear pieces were removed from the same parts of the two ears with a 6 mm hole punch. The two ear pieces were weighed on a precision balance, and the swelling degree (right ear piece weight-left ear piece weight) and swelling inhibition rate (right ear piece weight-left ear piece weight)/left ear piece weight×100%) were calculated.

[3] = Table 8, positive control 50 mg/Kg intraperitoneal
[4] = Table 5, positive control 50 mg/Kg intraperitoneal

SMILES: COc1ccc2c(c1)c(CC(=O)O)c(C)n2C(=O)c1ccc(Cl)cc1 [Indomethacin, reference compound]
- Paw swelling thickness 1 h (SD rats; 1 h after carrageenan): 5.52 ± 0.39 mm
- Paw swelling thickness 2 h (SD rats; 2 h after carrageenan): 5.65 ± 0.39 mm
- Paw swelling thickness 3 h (SD rats; 3 h after carrageenan): 6.11 ± 0.15 mm
- Paw swelling (right foot weight-left foot weight) (SD rats; 3 hours after carrageenan): 0.518 ± 0.05 g
- Writhe starting time (Kunming female mice [1]): 3.5 ± 1.0
- Number of writhing times (Kunming female mice [1]; oxytocin (20 U/kg), within 30 min): 14.7 ± 1.4
- Writhe starting time (Kunming female mice [2]; Table 7, 50 mg/Kg intraperitoneal): 1.89 ± 0.6 min
- Number of writhing times (Kunming female mice [2]; Table 7, 50 mg/Kg intraperitoneal, 1 h before PGF2α (1.3 mg/kg)): 15.0 ± 2.1
- Writhe starting time (Kunming female mice [2]; [3]): 2.1 ± 1.2 min
- Number of writhing times (Kunming female mice [2]; [3]): 16.8 ± 2.5
- Writhe starting time (Kunming male mice; Table 3, 50 mg/Kg intraperitoneal): 4.6 ± 0.8 min
- Number of writhing times (Kunming male mice; Table 3, 50 mg/Kg intraperitoneal, 1 hour before acetic acid): 15.8 ± 3.9
- Writhe starting time (Kunming male mice; [4]): 3.4 ± 1.0 min
- Number of writhing times (Kunming male mice; [4]): 24.8 ± 4.8
- ear swelling degree versus control group (mice): no statistical difference
- Ear swelling (mice; positive control intraperitoneal, 1 hour after xylene): 12 ± 3.74 mg

Reference: patent US11058690B2, “Use of cytochrome bc1 complex inhibitor in preparing pharmaceutical composition” (BEIJING WEILANZHIYUAN MEDICAL TECHNOLOGY CO., LTD., priority 2017, dated 2021)
